The subject of one experiment is Spleen. As to the kind of experiment: Induction of heme alkylation in Plasmodium vinckei petteri-infected Swiss albino mice (Mus musculus) spleen assessed as covalent heme-drug adduct formation at 100 mg/kg, perorally administered as single dose measured by liquid chromatography-mass spectrometry method. Type of experiment: functional, organism-based. On the set-up: dose 100 mg/kg.

Another experiment concerns Kidney. Description: Induction of heme alkylation in Plasmodium vinckei petteri-infected Swiss albino mice (Mus musculus) kidney assessed as heme-drug adduct at 100 mg/kg, perorally administered as single dose measured by liquid chromatography-mass spectrometry method. The class given is functional, organism-based. On the set-up: dose 100 mg/kg.

Active and inactive are the calls of the source. The calls are words filed in the database; no cut-off is given here.

Turning to `CC(C)C1=C[C@H]2OC3(CCC(NCCNc4ccnc5cc(Cl)ccc45)CC3)OO[C@@]2(C)CC1` (some centres not stated), the outcome in the experiment with Spleen was Active. In addition, the outcome in the experiment with Kidney was inactive.

The values are drawn from ChEMBL document CHEMBL1275485, “The antimalarial trioxaquine DU1301 alkylates heme in malaria-infected mice” (Antimicrob Agents Chemother, 2008).
